Data set [1] addresses Mitogen-activated protein kinase; ERK1/ERK2 (Homo sapiens, UniProt P27361+P28482). The experiment in a line: Inhibition of ERK1/2 phosphorylation in human MALME3M cells. The class given is cell-based.
The target in data set [2] is Serine/threonine-protein kinase B-raf (Homo sapiens, UniProt P15056). The experiment in a line: Inhibition of human recombinant B-Raf by fluorescence anisotropy. In general terms: In fluorescence polarisation assays a small probe gives low polarisation when free and higher when bound to something large.
Data set [3] is described as follows: Aqueous solubility at pH 6.5 by shake-flask method. The class given is physicochemical. The conditions noted are these: aqueous medium.
The next data set deals with Mus musculus. Description: Inhibition of ERK phosphorylation in human LOX tumor xenografted mouse at 25 mg/kg, po after 1 hrs by Western blot method. The class given is functional, organism-based. More on the design: dose 25 mg/kg. On the technique in general: Xenograft models place foreign cells or tissue in a host animal.

Experimental findings from ChEMBL document CHEMBL1156613, “Potent and selective pyrazole-based inhibitors of B-Raf kinase” (Bioorg Med Chem Lett, 2008) are described below.

By IC50 is commonly meant the concentration that inhibits the measured activity by half. For orientation: solubility (thermodynamic) means solubility found after equilibrating the solid with the medium.

Molecules are shown by their SMILES. Values after ≈ are worked out from the molar mass of the structure shown. Active and inactive are the calls of the source. No cut-off for these calls is given here.

Chain of Serine/threonine-protein kinase B-raf (P15056 whole entry): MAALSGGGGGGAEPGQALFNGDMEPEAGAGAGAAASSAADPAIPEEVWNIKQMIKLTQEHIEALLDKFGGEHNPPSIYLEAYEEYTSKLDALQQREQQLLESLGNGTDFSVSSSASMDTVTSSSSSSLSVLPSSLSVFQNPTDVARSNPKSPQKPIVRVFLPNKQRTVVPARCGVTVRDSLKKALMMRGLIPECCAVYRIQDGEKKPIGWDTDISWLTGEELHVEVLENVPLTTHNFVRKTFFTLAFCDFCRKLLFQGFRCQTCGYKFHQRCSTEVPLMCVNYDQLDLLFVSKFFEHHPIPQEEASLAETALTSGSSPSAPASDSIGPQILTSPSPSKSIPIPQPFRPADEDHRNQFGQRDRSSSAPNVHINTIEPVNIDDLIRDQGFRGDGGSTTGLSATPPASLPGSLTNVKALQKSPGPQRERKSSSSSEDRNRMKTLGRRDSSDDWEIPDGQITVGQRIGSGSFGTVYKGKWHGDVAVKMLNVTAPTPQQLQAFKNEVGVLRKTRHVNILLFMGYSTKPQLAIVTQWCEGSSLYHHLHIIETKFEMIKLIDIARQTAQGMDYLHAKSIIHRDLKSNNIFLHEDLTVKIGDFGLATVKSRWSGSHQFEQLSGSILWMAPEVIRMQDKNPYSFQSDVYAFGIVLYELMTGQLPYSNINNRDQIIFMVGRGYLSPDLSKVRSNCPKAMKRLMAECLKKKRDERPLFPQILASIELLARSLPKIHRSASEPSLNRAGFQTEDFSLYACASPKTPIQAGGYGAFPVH

In the case of `O/N=C1\CCc2cc(-c3cn(C4CCCC4)nc3-c3ccncc3)ccc21`, the IC50 in data set [1] amounted to 57 nM; in data set [2] it was 3.46 nM.

On to `Cn1cc(-c2ccc3c(c2)CC/C3=N\O)c(-c2cccnc2)n1`, for which the IC50 in data set [2] is 434 nM.

With `NCCCn1cc(-c2ccc3c(c2)CC/C3=N\O)c(-c2ccncc2)n1`, the figures for the IC50 in data set [1] and in data set [2] were 20 nM and 0.39 nM, respectively.

In the case of `O/N=C1\CCc2cc(-c3cn(CC4CCCNC4)nc3-c3ccncc3)ccc21` (stereo unspecified), the IC50 in data set [1] turned out to be 154 nM; in data set [2], 0.85 nM.

Consider `OCC(O)Cn1cc(-c2ccc3c(c2)CC/C3=N\O)c(-c2ccncc2)n1` (stereo unspecified), for which the values for the IC50 in data set [1] and in data set [2] were 22 nM and 0.87 nM, respectively.

`CNC1CCCC(n2cc(-c3ccc4c(c3)CC/C4=N\O)c(-c3ccncc3)n2)C1` (stereo unspecified): the IC50 in data set [1] is 18 nM; in data set [2] it was 0.23 nM.

As for `CCn1cc(-c2ccc3c(c2)CC/C3=N\O)c(-c2ccncc2)n1`, the IC50 in data set [1] amounted to 18 nM; in data set [2], 0.57 nM.

In data set [3], `O/N=C1\CCc2cc(-c3cn(C4CCNCC4)nc3-c3ccncc3)ccc21` yielded a thermodynamic solubility of 52 µg/mL (≈ 139 µM). The IC50 in data set [1] was determined as 9 nM; in data set [2] it was 0.03 nM. Besides, the result with Mus musculus was inactive.

Turning to `Cn1cc(-c2ccc3c(c2)CC/C3=N\O)c(-c2ccncn2)n1`, the results for the IC50 in data set [1] and in data set [2] were 1500 nM and 3.1 nM, respectively.

As to `CN(C)CCn1cc(-c2ccc3c(c2)CC/C3=N\O)c(-c2ccncc2)n1`, the IC50 in data set [1] came to 607 nM; in data set [2], 4.02 nM.

For `Cn1cc(-c2ccc3c(c2)CC/C3=N\O)c(-c2ccnc(N)c2)n1`, the 50% inhibitory concentration (IC50) in data set [1] turned out to be 1000 nM; in data set [2] it was 2.1 nM.

`Cn1cc(-c2ccc3cn[nH]c3c2)c(-c2ccncc2)n1`: in data set [2], the IC50 came to 70 nM.

Take `COCCn1cc(-c2ccc3c(c2)CC/C3=N\O)c(-c2ccncc2)n1`: the IC50 in data set [1] came out at 569 nM; in data set [2], 1.16 nM.

As to `O/N=C1\CCc2cc(-c3cn([C@@H]4CCC[C@@H](O)C4)nc3-c3ccncc3)ccc21` (relative stereo), the IC50 in data set [1] was determined as 17 nM; in data set [2] it was 0.09 nM.

With `Cn1cc(-c2ccc3c(c2)Cc2c[nH]nc2-3)c(-c2ccncc2)n1`, the figures for the IC50 in data set [1] and in data set [2] were 1900 nM and 1.5 nM, respectively.

As to `Cn1cc(-c2ccc3c(c2)CCN/C3=N/O)c(-c2ccncc2)n1`, the IC50 in data set [1] turned out to be 10000 nM; in data set [2], 16 nM.

With `O/N=C1\CCc2cc(-c3cn([C@H]4CCC[C@@H]4O)nc3-c3ccncc3)ccc21` (relative stereo), the values for the IC50 in data set [1] and in data set [2] were 37 nM and 0.33 nM, respectively.

Turning to `Cn1cc(-c2ccc3c(c2)CC/C3=N\O)c(-c2cnco2)n1`, the IC50 worked out at 2400 nM in data set [1] and 4.1 nM in data set [2].

Take `O/N=C1\CCc2cc(-c3c[nH]nc3-c3ccncc3)ccc21`: the IC50 came out at 53 nM in data set [1] and 0.15 nM in data set [2].

In the case of `CN(C)CCCn1cc(-c2ccc3c(c2)CC/C3=N\O)c(-c2ccncc2)n1`, the IC50 in data set [1] was determined as 122 nM; in data set [2], 0.47 nM.

As to `CN1CCC(n2cc(-c3ccc4c(c3)CC/C4=N\O)c(-c3ccncc3)n2)CC1`, the IC50 in data set [1] amounted to 10 nM; in data set [2] it was 0.34 nM.

For `OCC(CO)n1cc(-c2ccc3c(c2)CC/C3=N\O)c(-c2ccncc2)n1`, the IC50 stood at 171 nM in data set [1] and 0.56 nM in data set [2].

With `OCCCn1cc(-c2ccc3c(c2)CC/C3=N\O)c(-c2ccncc2)n1`, the IC50 in data set [1] worked out at 26 nM; in data set [2] it was 0.05 nM.

In the case of `Cn1cc(-c2ccc3c(c2)C(=O)NC3)c(-c2ccncc2)n1`, in data set [2], the IC50 stood at 68.4 nM.

Take `Cn1cc(-c2ccc(/C(N)=N\O)cc2)c(-c2ccncc2)n1`: the concentration for half-maximal inhibition (IC50) in data set [1] worked out at 20000 nM; in data set [2], 18.4 nM.

`OCCn1cc(-c2ccc3c(c2)CC/C3=N\O)c(-c2ccncc2)n1` gave a thermodynamic solubility in data set [3] of 76 µg/mL (≈ 227 µM). Also, in the data set with Mus musculus, the outcome was Active.

Take `NCCn1cc(-c2ccc3c(c2)CC/C3=N\O)c(-c2ccncc2)n1`: the IC50 was found to be 119 nM in data set [1] and 2.4 nM in data set [2].

Turning to `O/N=C1\CCc2cc(-c3cn(CC4CCNCC4)nc3-c3ccncc3)ccc21`, the IC50 in data set [1] turned out to be 332 nM; in data set [2], 1.2 nM.

Take `Cn1ncc(-c2ccc3c(c2)CC/C3=N\O)c1-c1ccncc1`: the IC50 in data set [1] is 165 nM; in data set [2] it was 0.48 nM.

`O/N=C1\CCc2cc(-c3cn(C4CCOCC4)nc3-c3ccncc3)ccc21`: the IC50 in data set [1] was determined as 48 nM; in data set [2], 0.22 nM.

As to `O/N=C1\CCc2cc(-c3cn([C@@H]4CCC[C@H](O)C4)nc3-c3ccncc3)ccc21` (relative stereo), the solubility (thermodynamic) in data set [3] was determined as 3 µg/mL (≈ 7.72 µM). Besides, the half-inhibitory concentration (IC50) in data set [1] was found to be 7 nM; in data set [2] it was 0.04 nM. Moreover, the result with Mus musculus was Active.

Consider `Cn1cc(-c2ccc(-c3cc[nH]n3)cc2)c(-c2ccncc2)n1`, for which the concentration for half-maximal inhibition (IC50) in data set [2] stood at 68.4 nM.

For `Cc1c[nH]nc1-c1ccc(-c2cn(C)nc2-c2ccncc2)cc1`, the IC50 in data set [1] amounted to 18000 nM; in data set [2], 4.4 nM.

In data set [3], `Cn1cc(-c2ccc3c(c2)CN/C3=N/O)c(-c2ccncc2)n1` displayed a solubility (thermodynamic) of 590 µg/mL (≈ 1930 µM). Moreover, the half-inhibitory concentration (IC50) in data set [1] is 56 nM; in data set [2] it was less than 2 nM.

`Cn1cc(-c2ccc3c(c2)CC/C3=N\O)c(-c2ccnc(O)c2)n1`: the IC50 in data set [1] worked out at 800 nM; in data set [2], 2.9 nM.

On to `Cn1cc(-c2ccc3c(c2)CC/C3=N\O)c(-c2ccc3c(cnn3C)c2)n1`, for which the IC50 in data set [2] is 970 nM.

Consider `O/N=C1\CCc2cc(-c3cn([C@H]4CCC[C@H]4O)nc3-c3ccncc3)ccc21` (relative stereo), for which the results for the IC50 in data set [1] and in data set [2] were 245 nM and 3.91 nM, respectively.

For `Cn1cc(-c2ccc3c(c2)CC/C3=N\O)c(-c2ccncc2)n1`, the IC50 is 33 nM in data set [1] and 0.02 nM in data set [2].
